US11541045B2, “Methods of treating cancer with farnesyltransferase inhibitors” (Kura Oncology, Inc., priority 2017, dated 2023)
Values joined by “and” are separate entries in the source; they are usually repeats but may differ in a detail not shown here. Equal entries are not always repeated. “Also recorded” adds a separate entry of the source.

Experiments:
Type in all cases: in vivo, human
[1] = test system: peripheral T-cell lymphoma (PTCL); assay: Phase II clinical study of tipifarnib in relapsed or refractory PTCL patients; set-up: key to Response: PR: partial response; SD: stable disease; PD: progressive disease
Text: A Phase II clinical study of tipifarnib can be conducted with the primary objective being to assess the antitumor activity of tipifarnib, in terms of Objective Response Rate (ORR) in subjects with relapsed or refractory advanced peripheral T-cell lymphoma (PTCL). Determination of objective tumor response can be performed by the International Workshop Criteria (IWC) and/or measurable cutaneous disease according to the modified Severity Weighted Assessment Tool (mSWAT). Secondary objectives can include accessing the effect of tipifarnib on rate of progression-free survival (PFS) at 1 year, duration of response (DOR), overall survival (OS); and safety and tolerability of tipifarnib.
This Phase II study investigates the antitumor activity in terms of ORR of tipifarnib in subjects with PTCL. Up to 18 eligible subjects with advanced PTCL are enrolled. The total number of patients can be extended to 30.
Subjects receive tipifarnib administered at a starting dose of 900 mg, orally with food, twice a day (bid) for 7 days in alternating weeks (Days 1-7 and 15-21) in 28 day cycles. At the discretion of the investigator, the dose of tipifarnib can be increased to 1200 mg bid if the subject has not experienced dose limiting toxicities at the 900 mg dose level. Subjects who develop serious adverse events (SAE) or ≥grade 2 treatment-emergent adverse events (TEAE) that are deemed related to tipifarnib and lasting ≥14 days will not undergo dose escalation. Stepwise 300 mg dose reductions to control treatment-related, treatment-emergent toxicities are also allowed.
In the absence of unmanageable toxicities, subjects can continue to receive tipifarnib treatment until disease progression. If a complete response is observed, therapy with tipifarnib can be maintained for at least 6 months beyond the start of response.
Tumor assessments are performed at screening and at least once every approximately 8 weeks for 6 months (cycles 2, 4, 6) and once every approximately 12 weeks (cycles 9, 12, 15, etc.) thereafter, until disease progression, starting at the end of Cycle 2. Additional tumor assessments can be conducted if deemed necessary by the Investigator. Subjects who discontinue tipifarnib treatment for reasons other than disease progression must continue tumor assessments until disease progression, withdrawal of subject's consent to study
The study was an eighteen patient Phase II study with a Simon two-stage design (11+7). Two responses were required after the first eleven evaluable patients in order to proceed to second stage. Enrollment is to be extended to thirty patients if five responses are seen in the first stage.
The dose of 900 mg b.i.d. for seven days in alternate week dosing was amended during the first stage to 600 mg b.i.d. for seven days in alternate week dosing.
Formalin-fixed, paraffin-embedded (FFPE) samples were obtained from all subjects for the analysis of gene expression using RNA Seq and of single nucleotide variation (SNV, including SNPs and mutations) using next generation sequencing (NGS). Thirteen samples passed quality control (QC) for expression analysis. Sixteen samples passed quality control for SNV analysis.
This example describes a Phase 2 study (ClinicalTrials.gov Identifier: NCT02464228) designed to investigate the antitumor activity of tipifarnib in 18 patients with relapsed or refractory PTCL, and certain results of the study.
Primary outcome measures: Objective Response Rate (ORR) by the International Workshop Criteria (IWC) and/or measurable cutaneous disease according to the modified Severity Weighted Assessment Tool (mSWAT). Secondary outcome measures include the effect of tipifarnib on rate of progression-free survival (PFS) at 1 year, duration of response (DOR); and safety and tolerability of tipifarnib.
Study Design: oral tipifarnib 300 mg twice daily (bid) on days 1-21 of 28-day treatment cycles. A Simon two-stage design for ORR. […]

[2] = test system: newly diagnosed AML in elderly patients with poor risk AML; assay: CTEP-20 trial, Phase 2, tipifarnib, analysed by CXCL12 expression
Experimental: (§1) Previous clinical studies with tipifarnib were performed in newly diagnosed AML in elderly patients with poor risk AML (CTEP-20, Phase 2) or relapsed and refractory AML (INT-17, Phase 2). In these studies, patient selection was not based on genetic markers. Anecdotal evidence of tipifarnib single agent activity was reported.

[3] = test system: relapsed and refractory AML; assay: INT-17 trial, Phase 2, tipifarnib, analysed by CXCR4 expression; conditions: relapsed or refractory AML patients, highest quintile of CXCR4 expression
Experimental: as §1

[4] = Grade ≥3 drug-related TEAEs, % of pts

Q: For Cn1cncc1[C@@](N)(c1ccc(Cl)cc1)c1ccc2c(c1)c(-c1cccc(Cl)c1)cc(=O)n2C [tipifarnib], which “Median overall PFS” value ([1]; 5th line, all subjects with NGS data, reference and variant CXCL12 3′ UTR) is on record?
A: 53 days

Q: What about the “HR (PFS)” value ([1]; CXCL12/CXCR4 ratio >0.200 versus ≤0.200, P=0.004) of the same molecule?
A: 0.22

Q: What about the anemia [1, 4] of the same molecule?
A: 32%

Q: And the febrile neutropenia [1, 4]?
A: 32%

Q: And the leukopenia [1, 4]?
A: 47%

Q: And the lymphopenia [1, 4]?
A: 16%

Q: What about the neutropenia [1, 4] of the same molecule?
A: 74%

Q: What about the thrombocytopenia [1, 4] of the same molecule?
A: 58%

Q: And the “Safety and Tolerability” value ([1]; PTCL patients, overall statement)?
A: consistent with known safety profile; also recorded: generally well-tolerated

Q: What about the Response ([1]; Table 1, one line per subject 1-18, PTCL patients, 900 mg b.i.d. amended to 600 mg b.i.d., seven days in alternate weeks) of the same molecule?
A: PR (3×) and PD (11×) and SD (4×)

Q: What about the Response ([1]; Table 2, RNA Seq Experiment#1, one cell per patient (2002, 2004, 3002, 4001, 2001, 4004)) of the same molecule?
A: PD (3×) and SD (2×) and PR

Q: And the Response ([1]; Table 3, RNA Seq Experiment#2, one cell per patient (2005, 2006, 4005, 4006, 4007, 6003, 2007))?
A: PD (5×) and SD and PR

Q: What about the “median duration of durable responses” value ([1]; cohort of PTCL patients of Example II) of the same molecule?
A: 11 months

Q: And the “median time to progression” value ([1]; five patients with tumor size reductions, associated with elevated CXCL12 expression (p<0.001))?
A: > 6 mo

Q: And the “HR (PFS)” value ([1]; high versus low CXCL12 expression, FIG. 13A, p=0.0015)?
A: 0.22

Q: And the “Discontinuation for Progressive Disease” value ([1]; of 17 discontinuations)?
A: 16 n

Q: What about the mPFS ([1]; patients with CXCL12 3′ UTR SNV rs2839695, N=7, first time point (FIG. 4)) of the same molecule?
A: 48 days

Q: What about the “median progression free survival (mPFS)” value ([1]; patients with CXCL12/CXCR4 ratio >0.200 (N=5)) of the same molecule?
A: 189 days

Q: What about the “median progression free survival (mPFS)” value ([1]; patients with CXCL12/CXCR4 ratio ≤0.200 (N=7)) of the same molecule?
A: 51 days

Q: And the mPFS ([1]; patients with CXCL12 reference 3′ UTR (8 patients), FIG. 12A)?
A: 133 days

Q: What about the mPFS ([1]; patients with CXCL12 rs2839695, N=7, later timepoint (FIG. 6)) of the same molecule?
A: 50 days

Q: What about the mPFS ([1]; patients with CXCL12 variant 3′ UTR (8 with rs2839695 and 1 novel variant), FIG. 12B) of the same molecule?
A: 34 days

Q: What about the mPFS ([1]; patients with no SNV in the 3′ UTR of CXCL12 (reference 3′ UTR), N=8, first time point (FIG. 4)) of the same molecule?
A: 189 days

Q: What about the mPFS ([1]; patients with no SNV in the 3′ UTR of CXCL12, N=8, later timepoint (FIG. 6)) of the same molecule?
A: 134 days

Q: What about the mPFS ([1]; subjects with high CXCL12 expression, FIG. 13A) of the same molecule?
A: 190 days

Q: And the “activity in KIR3DL2-expressing PTCL” value ([1]; subjects with high KIR3DL2 expression (e.g., over 1000))?
A: no activity

Q: What about the mPFS ([1]; subjects with low CXCL12 expression, FIG. 13A) of the same molecule?
A: 49 days

Q: What about the mPFS ([2]; second CXCL12 expression tertile) of the same molecule?
A: 89 days

Q: And the mPFS ([2]; third tertile (lowest level of CXCL12 expression))?
A: 33 days

Q: What about the “median progression free survival (mPFS)” value ([2]; treatment naïve elderly, frail AML patients, highest CXCL12 expression tertile) of the same molecule?
A: 431 days

Q: What about the median survival [3] of the same molecule?
A: 182 days
